In US20260374752A1, “COMPOUNDS, COMPOSITIONS, AND METHODS” (Tenvie Therapeutics, Inc., priority 2023, published 2026):
Read-outs that look alike come from different tables or passages of the source.

Biological target: T1, (Homo sapiens, UniProt Q96P20)
T1 construct: IL-1β ELISA of supernatant
Assay: IL-1β secretion assay in THP-1 cells (PMA differentiated, LPS and nigericin stimulated; ELISA)
Type: cell-based
Experimental: Biochemical Assay of the Compounds
Procedure for Culturing THP-1 Cells
Compounds as provided herein were tested in the following assay. Cell culture medium employed contained RPMI 1640 medium (89%), FBS (10%), Pen/Strep (1%), and 2-mercaptoethanol (0.05 mM). Freezing medium was made up of 90% FBS and 10% DMSO. THP-1 cells were removed from the liquid nitrogen and placed into a 37 °C water bath to thaw, until signs of ice dissipated. The cells were then added to 9 mL of warm cell culture medium and centrifuged for 5 minutes at 1000 rpm. The supernatant was discarded, and the cells were resuspended in new cell culture medium. THP-1 cells were then split and cultured in the cell culture medium, being passaged every 2-3 days with the cell density will be maintained between 5×10^5 and 1.5×10^6 viable cells/mL.
To freeze, cells were resuspended with fresh freezing medium, adjusting the cell density to 5×10^6 cells/mL. The cell suspension was partitioned into 1 mL aliquots per vial, and the vials were transferred to a −80 °C freezer. After one day at −80 °C, the cell vials were transferred to liquid nitrogen freezer for storage.
Procedure for IL-Iβ Secretion Assay in 384-Well Plates
PMA was dissolved in DMSO to make a stock solution at 5 mg/ml and stored in 10 μl aliquots at −20 °C for single use. PMA is added to normal growth medium. LPS was diluted with 1 mL of water solution to provide a 1 mg/mL stock solution and stored in 15 μL aliquots at −20 °C for single use. Nigericin is diluted in ice cold 100% ethanol to 5 mg/ml (6.7 mM) and stored in 75 μL aliquots at −20 °C for single use. Serum-free media contains RPMI 1640 medium (99%), Pen/Strep (1%), and 2-mercaptoethanol (0.05 mM). The two control conditions used to qualify and normalize test compound dose-response curves were as follows: High Control=25 ng/mL LPS, 5 μM Nigericin, 0.5% DMSO, Low Control=25 ng/ml, LPS, 0.5% DMSO.
Day 1: Differentiation with PMA
THP-1 cells were diluted to provide a suspension at a concentration of 1.0×10^6 cells/mL with the total volume of suspension required to enable the desired number of assay plates. The growth media was supplemented with PMA (5 ng/mL final concentration) and the cells were incubated at 37 °C under a humidified atmosphere of 5% CO2 for 40 h.
Day 3: Plating with Sequential LPS and Nigericin Stimulation
All media was carefully aspirated from each culture flask. The cells were washed carefully with 1× DPBS. The cells were then briefly digested with trypsin LE for 5 minutes at 23 °C and immediately resuspended in cell growth media. After resuspension, the cells were centrifuged at 1000 rpm for 3 minutes and the supernatant was discarded. The cells were resuspended in DPBS and once again centrifuged at 1000 rpm for 5 minutes. The supernatant was discarded and the cell pellet was resuspended in serum-free media supplemented with LPS (25 ng/mL final concentration) to enable the distribution of 30K THP-1 cells within 45 μL of media into each well of 384-well PDL-coated plates. The 384-well plates were then incubated at 37 °C under a humidified atmosphere of 5% CO2 for 2 h. Following this period, test compounds were dispensed by Tecan across the desired concentration range with all wells normalized to a final 0.5% DMSO concentration. The plates were then then incubated at 37 °C under a humidified atmosphere of 5% CO2 for 1 h. Following this period, 5 μL of the […] nigericin stock solution was added to each of the appropriate wells and plates were centrifuged at 1000 rpm for 30 seconds. The plates were the immediately reintroduced to the incubator at 37 °C under a humidified atmosphere of 5% CO2 for 2 h. After this time, 35 μL/well of supernatant was collected and transferred into v-bottom plate and centrifuged at 1000 rpm for 1 minute. These supernatant aliquots were analyzed using an IL-Iβ detection kit as described below. If needed, the test samples could be snap frozen and stored at −80 °C until analyzed. […]

[1] = inhibition of IL-1β secretion, 25 ng/mL LPS, 5 μM Nigericin, 0.5% DMSO, read-out: Activity (IC50)
[2] = inhibition of IL-1β secretion, 25 ng/mL LPS, 5 μM Nigericin, 0.5% DMSO, read-out: Activity (IC50 class)

T1 sequence (Q96P20 whole entry): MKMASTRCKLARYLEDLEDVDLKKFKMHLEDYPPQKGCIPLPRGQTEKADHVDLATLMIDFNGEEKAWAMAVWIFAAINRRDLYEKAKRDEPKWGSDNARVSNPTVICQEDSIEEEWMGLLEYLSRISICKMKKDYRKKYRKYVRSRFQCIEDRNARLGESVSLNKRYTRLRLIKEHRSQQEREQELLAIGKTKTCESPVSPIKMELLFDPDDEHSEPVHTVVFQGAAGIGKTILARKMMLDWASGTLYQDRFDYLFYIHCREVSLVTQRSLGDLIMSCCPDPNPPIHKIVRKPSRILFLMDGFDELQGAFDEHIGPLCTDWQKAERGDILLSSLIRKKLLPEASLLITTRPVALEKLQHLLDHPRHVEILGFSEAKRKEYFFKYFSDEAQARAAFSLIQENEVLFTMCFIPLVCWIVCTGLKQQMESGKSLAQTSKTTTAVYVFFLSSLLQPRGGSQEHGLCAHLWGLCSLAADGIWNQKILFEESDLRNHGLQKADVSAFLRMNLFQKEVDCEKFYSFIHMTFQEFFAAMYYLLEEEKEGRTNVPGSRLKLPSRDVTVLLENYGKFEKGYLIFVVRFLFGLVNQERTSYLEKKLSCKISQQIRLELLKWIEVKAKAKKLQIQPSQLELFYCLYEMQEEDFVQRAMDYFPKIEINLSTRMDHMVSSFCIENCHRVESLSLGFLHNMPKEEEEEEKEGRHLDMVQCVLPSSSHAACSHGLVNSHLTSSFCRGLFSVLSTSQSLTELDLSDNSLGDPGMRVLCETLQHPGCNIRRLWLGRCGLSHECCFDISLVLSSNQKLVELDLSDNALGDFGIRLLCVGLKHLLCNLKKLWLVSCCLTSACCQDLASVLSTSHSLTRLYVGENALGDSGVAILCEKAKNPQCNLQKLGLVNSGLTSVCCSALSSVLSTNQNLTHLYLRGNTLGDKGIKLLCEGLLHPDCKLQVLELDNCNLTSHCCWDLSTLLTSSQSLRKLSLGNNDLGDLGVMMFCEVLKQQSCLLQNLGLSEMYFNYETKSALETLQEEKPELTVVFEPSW

SMILES	IC50 [1]	IC50 [2]	IC50 (read-out: Activity (IC50), inhibition of IL-1β secretion, 25 ng/mL LPS, 5 μM Nigericin, 0.5% DMSO)	IC50 (read-out: Activity (IC50 class), inhibition of IL-1β secretion, 25 ng/mL LPS, 5 μM Nigericin, 0.5% DMSO)
O=C(CN1C(=O)c2ccc(Br)cc2[C@@H]2C[C@@H]21)Nc1ncc(F)cn1 (relative stereo) [compound 5, 2-(cis-6-bromo-3-oxo-1a,7b-dihydro-1H-cyclopropa[c]isoquinolin-2-yl)-N-(5-fluoropyrimidin-2-yl) acetamide]	800 nM	< 1000 nM	–	–
O=C(CN1C(=O)c2ccc(Br)cc2[C@@H]2CCC[C@@H]21)Nc1ncc(F)cn1 (relative stereo) [compound 1, 2-(cis-8-bromo-5-oxo-2,3,3a,9b-tetrahydro-1H-cyclopenta[c]isoquinolin-4-yl)-N-(5-fluoropyrimidin-2-yl) acetamide]	–	–	700 nM	< 1000 nM
O=C(CN1C(=O)c2ccc(Br)cc2[C@]2(C(F)(F)F)C[C@H]12)Nc1ncc(F)cn1 (single isomer, unassigned) [compound 3, 2-[trans-6-bromo-3-oxo-7b-(trifluoromethyl)-1,1a-dihydrocyclopropa[c]isoquinolin-2-yl]-N-(5-fluoropyrimidin-2-yl) acetamide]	9500 nM	1000 to 10000 nM	–	–
O=C(CN1C(=O)c2ccc(Br)cc2[C@@H]2CC[C@@H]21)Nc1ncc(F)cn1 (relative stereo) [compound 4, 2-(cis-7-bromo-4-oxo-1,2,2a,8b-tetrahydrocyclobuta[c]isoquinolin-3-yl)-N-(5-fluoropyrimidin-2-yl) acetamide]	240 nM	< 1000 nM	–	–
O=C(CN1C(=O)c2ccc(Br)cc2[C@]2(C(F)(F)F)C[C@H]12)Nc1ncc(F)cn1 (single isomer, unassigned) [compound 2, 2-[trans-6-bromo-3-oxo-7b-(trifluoromethyl)-1,1a-dihydrocyclopropa[c]isoquinolin-2-yl]-N-(5-fluoropyrimidin-2-yl) acetamide]	270 nM	< 1000 nM	–	–
